From PubChem BioAssay AID1918952 (Molecular Pharmacology Branch, DTP, NCI, 2023)

Test system: LG0703-F948-PDC complex spheroid viability
Assay: Anticancer human tumor LG0703-F948-PDC patient-derived lung adenocarcinoma cell line growth inhibition
Conditions: for IC50: curve of first compound; for viability, T/C: stronger effect = lower value; active means viability on the fitted dose curve at most 10% of control; inactive means the rest
How it was run: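 Complex spheroids of tumor cells with HUVEC and human MSCs, exposed to iadademstat combined with other agents. Each agent tested in half-log steps from near clinical Cmax (else 10 microM top), DMSO ≤0.25%.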

[1] = second compound 0.1 µM, first compound 0.0316 µM
[2] = second compound 0.1 µM, first compound 0.1 µM
[3] = second compound 0.1 µM, first compound 0.316 µM
[4] = second compound 0.1 µM, first compound 1 µM
[5] = second compound 0.1 µM, first compound 3.16 µM
[6] = second compound 0.1 µM, first compound 10 µM
[7] = second compound 0.316 µM, first compound 0.0316 µM
[8] = second compound 0.316 µM, first compound 0.1 µM
[9] = second compound 0.316 µM, first compound 0.316 µM
[10] = second compound 0.316 µM, first compound 1 µM
[11] = second compound 0.316 µM, first compound 3.16 µM
[12] = second compound 0.316 µM, first compound 10 µM
[13] = second compound 1 µM, first compound 0.0316 µM
[14] = second compound 1 µM, first compound 0.1 µM
[15] = second compound 1 µM, first compound 0.316 µM
[16] = second compound 1 µM, first compound 1 µM
[17] = second compound 1 µM, first compound 3.16 µM
[18] = second compound 1 µM, first compound 10 µM
[19] = second compound 3.16 µM, first compound 0.0316 µM
[20] = second compound 3.16 µM, first compound 0.1 µM
[21] = second compound 3.16 µM, first compound 0.316 µM
[22] = second compound 3.16 µM, first compound 1 µM
[23] = second compound 3.16 µM, first compound 3.16 µM
[24] = second compound 3.16 µM, first compound 10 µM
[25] = second compound 10 µM, first compound 0.0316 µM
[26] = second compound 10 µM, first compound 0.1 µM
[27] = second compound 10 µM, first compound 0.316 µM
[28] = second compound 10 µM, first compound 1 µM
[29] = second compound 10 µM, first compound 3.16 µM
[30] = second compound 10 µM, first compound 10 µM
[31] = second compound 0.1 µM, first compound 0.00949 µM
[32] = second compound 0.1 µM, first compound 0.03 µM
[33] = second compound 0.1 µM, first compound 0.0949 µM
[34] = second compound 0.1 µM, first compound 0.3 µM
[35] = second compound 0.316 µM, first compound 0.00949 µM
[36] = second compound 0.316 µM, first compound 0.03 µM
[37] = second compound 0.316 µM, first compound 0.0949 µM
[38] = second compound 0.316 µM, first compound 0.3 µM
[39] = second compound 1 µM, first compound 0.00949 µM
[40] = second compound 1 µM, first compound 0.03 µM
[41] = second compound 1 µM, first compound 0.0949 µM
[42] = second compound 1 µM, first compound 0.3 µM
[43] = second compound 3.16 µM, first compound 0.00949 µM
[44] = second compound 3.16 µM, first compound 0.03 µM
[45] = second compound 3.16 µM, first compound 0.0949 µM
[46] = second compound 3.16 µM, first compound 0.3 µM
[47] = second compound 10 µM, first compound 0.00949 µM
[48] = second compound 10 µM, first compound 0.03 µM
[49] = second compound 10 µM, first compound 0.0949 µM
[50] = second compound 10 µM, first compound 0.3 µM
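Further: spheroids exposed to agents for seven days before readout.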
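Wherever viability, T/C is given: 100% = DMSO vehicle control wells as normalization base.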

CC1(C)CCC(CN2CCN(c3ccc(C(=O)NS(=O)(=O)c4ccc(NCC5CCOCC5)c([N+](=O)[O-])c4)c(Oc4cnc5[nH]ccc5c4)c3)CC2)=C(c2ccc(Cl)cc2)C1 + NC1CCC(NC2CC2c2ccccc2)CC1
2360 nM: IC50 (second compound 10 µM)
inactive: viability, T/C [1] 107% | viability, T/C [2] 90.9% | viability, T/C [3] 85.2% | viability, T/C [4] 99.4% | viability, T/C [5] 34.9% | viability, T/C [7] 97.3% | viability, T/C [8] 99.2% | viability, T/C [9] 102% | viability, T/C [10] 112% | viability, T/C [11] 24.9% | viability, T/C [13] 100% | viability, T/C [14] 119% | viability, T/C [15] 117% | viability, T/C [16] 103% | viability, T/C [17] 37.8% | viability, T/C [19] 126% | viability, T/C [20] 119% | viability, T/C [21] 135% | viability, T/C [22] 118% | viability, T/C [23] 36.9% | viability, T/C [25] 112% | viability, T/C [26] 114% | viability, T/C [27] 104% | viability, T/C [28] 99.1% | viability, T/C [29] 33.4%
active: viability, T/C [6] 2.77% | viability, T/C [12] 2.76% | viability, T/C [18] 2.92% | viability, T/C [24] 2.37% | viability, T/C [30] 2.95%
2380 nM: IC50 (second compound 0.1 µM)
2180 nM: IC50 (second compound 0.316 µM)
2630 nM: IC50 (second compound 3.16 µM)
2550 nM: IC50 (second compound 1 µM)

CC1COCCN1c1cc(C2(S(C)(=N)=O)CC2)nc(-c2ccnc3[nH]ccc23)n1 (stereo not given) + NC1CCC(NC2CC2c2ccccc2)CC1
4990 nM: IC50 (second compound 0.1 µM)
4930 nM: IC50 (second compound 3.16 µM)
4130 nM: IC50 (second compound 10 µM)
inactive: viability, T/C [1] 107% | viability, T/C [2] 108% | viability, T/C [3] 103% | viability, T/C [4] 94.4% | viability, T/C [5] 64% | viability, T/C [6] 28.4% | viability, T/C [7] 111% | viability, T/C [8] 112% | viability, T/C [9] 94.8% | viability, T/C [10] 96.3% | viability, T/C [11] 59.5% | viability, T/C [12] 30% | viability, T/C [13] 113% | viability, T/C [14] 104% | viability, T/C [15] 99.6% | viability, T/C [16] 100% | viability, T/C [17] 77.5% | viability, T/C [18] 23.8% | viability, T/C [19] 122% | viability, T/C [20] 118% | viability, T/C [21] 117% | viability, T/C [22] 96.4% | viability, T/C [23] 66% | viability, T/C [24] 25.5% | viability, T/C [25] 131% | viability, T/C [26] 129% | viability, T/C [27] 110% | viability, T/C [28] 88.1% | viability, T/C [29] 63.8% | viability, T/C [30] 14.2%
4800 nM: IC50 (second compound 0.316 µM)
5730 nM: IC50 (second compound 1 µM)

CCN(c1cc(-c2ccc(CN3CCOCC3)cc2)cc(C(=O)NCc2c(C)cc(C)[nH]c2=O)c1C)C1CCOCC1 + NC1CCC(NC2CC2c2ccccc2)CC1
> 3000 nM: IC50 (second compound 0.1 µM) | IC50 (second compound 0.316 µM) | IC50 (second compound 1 µM) | IC50 (second compound 3.16 µM) | IC50 (second compound 10 µM)
inactive: viability, T/C [31] 105% | viability, T/C [32] 106% | viability, T/C [33] 96.2% | viability, T/C [34] 108% | viability, T/C (second compound 0.1 µM, first compound 0.949 µM) 119% | viability, T/C (second compound 0.1 µM, first compound 3 µM) 128% | viability, T/C [35] 107% | viability, T/C [36] 130% | viability, T/C [37] 106% | viability, T/C [38] 112% | viability, T/C (second compound 0.316 µM, first compound 0.949 µM) 111% | viability, T/C (second compound 0.316 µM, first compound 3 µM) 112% | viability, T/C [39] 128% | viability, T/C [40] 116% | viability, T/C [41] 113% | viability, T/C [42] 133% | viability, T/C (second compound 1 µM, first compound 0.949 µM) 128% | viability, T/C (second compound 1 µM, first compound 3 µM) 127% | viability, T/C [43] 124% | viability, T/C [44] 131% | viability, T/C [45] 144% | viability, T/C [46] 138% | viability, T/C (second compound 3.16 µM, first compound 0.949 µM) 121% | viability, T/C (second compound 3.16 µM, first compound 3 µM) 141% | viability, T/C [47] 120% | viability, T/C [48] 131% | viability, T/C [49] 134% | viability, T/C [50] 118% | viability, T/C (second compound 10 µM, first compound 0.949 µM) 118% | viability, T/C (second compound 10 µM, first compound 3 µM) 105%

Nc1ncn(C2CC(O)C(CO)S2)c(=O)n1 (stereo not given) + NC1CCC(NC2CC2c2ccccc2)CC1
inactive: viability, T/C (second compound 0.1 µM, first compound 0.000949 µM) 114% | viability, T/C (second compound 0.1 µM, first compound 0.003 µM) 117% | viability, T/C [31] 107% | viability, T/C [32] 120% | viability, T/C [33] 113% | viability, T/C [34] 99.9% | viability, T/C (second compound 0.316 µM, first compound 0.000949 µM) 124% | viability, T/C (second compound 0.316 µM, first compound 0.003 µM) 123% | viability, T/C [35] 121% | viability, T/C [36] 113% | viability, T/C [37] 128% | viability, T/C [38] 99.8% | viability, T/C (second compound 1 µM, first compound 0.000949 µM) 112% | viability, T/C (second compound 1 µM, first compound 0.003 µM) 115% | viability, T/C [39] 118% | viability, T/C [40] 122% | viability, T/C [41] 123% | viability, T/C [42] 104% | viability, T/C (second compound 3.16 µM, first compound 0.000949 µM) 121% | viability, T/C (second compound 3.16 µM, first compound 0.003 µM) 125% | viability, T/C [43] 115% | viability, T/C [44] 121% | viability, T/C [45] 137% | viability, T/C [46] 119% | viability, T/C (second compound 10 µM, first compound 0.000949 µM) 116% | viability, T/C (second compound 10 µM, first compound 0.003 µM) 126% | viability, T/C [47] 115% | viability, T/C [48] 107% | viability, T/C [49] 113% | viability, T/C [50] 108%
> 300 nM: IC50 (second compound 0.1 µM) | IC50 (second compound 0.316 µM) | IC50 (second compound 1 µM) | IC50 (second compound 3.16 µM) | IC50 (second compound 10 µM)

O=C(C=Cn1cnc(-c2cc(C(F)(F)F)cc(C(F)(F)F)c2)n1)NNc1cnccn1 + NC1CCC(NC2CC2c2ccccc2)CC1
29 nM: IC50 (second compound 3.16 µM)
inactive: viability, T/C (second compound 0.1 µM, first compound 0.00316 µM) 45.3% | viability, T/C (second compound 0.1 µM, first compound 0.01 µM) 50.8% | viability, T/C [1] 37.8% | viability, T/C [2] 33% | viability, T/C [3] 30.6% | viability, T/C [4] 25.1% | viability, T/C (second compound 0.316 µM, first compound 0.00316 µM) 47.3% | viability, T/C (second compound 0.316 µM, first compound 0.01 µM) 47.5% | viability, T/C [7] 43.8% | viability, T/C [8] 31.8% | viability, T/C [9] 33% | viability, T/C [10] 33.9% | viability, T/C (second compound 1 µM, first compound 0.00316 µM) 56.6% | viability, T/C (second compound 1 µM, first compound 0.01 µM) 50.1% | viability, T/C [13] 44.5% | viability, T/C [14] 37.6% | viability, T/C [15] 29.7% | viability, T/C [16] 33.8% | viability, T/C (second compound 3.16 µM, first compound 0.00316 µM) 58.4% | viability, T/C (second compound 3.16 µM, first compound 0.01 µM) 57.2% | viability, T/C [19] 48.3% | viability, T/C [20] 41.1% | viability, T/C [21] 32.8% | viability, T/C [22] 30.2% | viability, T/C (second compound 10 µM, first compound 0.00316 µM) 41.7% | viability, T/C (second compound 10 µM, first compound 0.01 µM) 45.7% | viability, T/C [25] 45.7% | viability, T/C [26] 44.9% | viability, T/C [27] 37.4% | viability, T/C [28] 23.5%
9.15 nM: IC50 (second compound 1 µM)
< 3.16 nM: IC50 (second compound 0.1 µM) | IC50 (second compound 0.316 µM) | IC50 (second compound 10 µM)
